Here are results for four molecules from patent US20240270762A1, “PENICILLIN-BINDING PROTEIN INHIBITORS” (priority 2021, published 2024).

The target of test [1] is T1, PBP3 from Escherichia coli (K-12) (Escherichia coli, UniProt P0AD68).
T1 construct: made in house
The test is described as follows: Bocillin-FL fluorescence polarization competition binding, E. coli PBP3. In outline: (§1)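 Purified PBPs pre-incubated with inhibitor (E. coli PBP3 1.5 μM, 30 min; P. aeruginosa PBP3 0.75 μM, A. baumannii PBP1a 1 μM and PBP3 0.2 μM, 15 min), then Bocillin-FL 0.1 μM (0.05 μM for PBP1a) added; FP read up to 60 min. EC50 = concentration halving bound Bocillin-FL.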

The target in test [2] is T2, PBP3 from Pseudomonas aeruginosa (PAO1) (Pseudomonas aeruginosa, UniProt G3XD46).
T2 construct: made in house
T2 sequence (G3XD46 whole entry): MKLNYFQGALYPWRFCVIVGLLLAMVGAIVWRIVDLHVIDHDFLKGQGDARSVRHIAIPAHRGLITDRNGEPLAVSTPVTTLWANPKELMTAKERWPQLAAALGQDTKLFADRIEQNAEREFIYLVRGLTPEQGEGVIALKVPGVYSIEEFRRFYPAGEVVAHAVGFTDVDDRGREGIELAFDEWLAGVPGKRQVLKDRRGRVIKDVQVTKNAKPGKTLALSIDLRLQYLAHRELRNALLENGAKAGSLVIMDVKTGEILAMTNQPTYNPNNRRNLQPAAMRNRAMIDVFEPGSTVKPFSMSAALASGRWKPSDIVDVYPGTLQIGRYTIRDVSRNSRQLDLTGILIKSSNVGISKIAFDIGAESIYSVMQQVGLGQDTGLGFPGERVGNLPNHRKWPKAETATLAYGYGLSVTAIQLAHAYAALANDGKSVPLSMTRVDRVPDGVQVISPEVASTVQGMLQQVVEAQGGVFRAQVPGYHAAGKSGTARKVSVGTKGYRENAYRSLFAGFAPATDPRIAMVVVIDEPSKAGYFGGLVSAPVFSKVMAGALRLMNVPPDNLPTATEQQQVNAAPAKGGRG
The test is described as follows: Bocillin-FL fluorescence polarization competition binding, P. aeruginosa PBP3. The conditions noted are these: Binding affinity to P. aeruginosa PBP3; fluorescence polarization competition binding assay using Bocillin-FL; read-out: P. aeruginosa PBP3 Potency. The method in brief: as §1
On the technique in general: Polarisation of emitted light reports the rotation of a fluorescent probe.

For a further test, the system named is P. aeruginosa ATCC 27853. The test is described as follows: microbe, parasite or virus in culture. Type of test: cell-based. Particulars: Pseudomonas aeruginosa, ATCC27853, read-out: Minimum inhibitory concentration, P. aeruginosa ATCC 27853.
Another test concerns A. baumannii ATCC 19606. Put plainly: microbe, parasite or virus in culture. Type of test: cell-based. Particulars: Acinetobacter baumannii, ATCC19606, read-out: MIC, A. baumannii ATCC 19606.
For test [3], the system named is P. aeruginosa (ΔmexAB-oprM). Put plainly: Broth microdilution MIC in iron-depleted CAMHB (IDM). Type of test: cell-based. Particulars: Pseudomonas aeruginosa; iron-depleted CAMHB (IDM); […]; read-out: Minimum inhibitory concentration, P. aeruginosa ΔmexAB-oprM.
In the next test the test system is A. baumannii CDC-0045. The test is described as follows: microbe, parasite or virus in culture. Type of test: cell-based. Particulars: Acinetobacter baumannii, CDC0045, read-out: MIC, A. baumannii CDC-0045.
The test system of test [4] is B. thailandensis ATCC 700388. Put plainly: microbe, parasite or virus in culture. Type of test: cell-based. The conditions noted are these: Burkholderia thailandensis, ATCC700388, read-out: Minimum inhibitory concentration (MIC), B. thailandensis ATCC 700388.
Test [5] concerns B. humptydooensis ATCC BAA-2767. Put plainly: microbe, parasite or virus in culture. Type of test: cell-based. Particulars: Burkholderia humptydooensis, ATCCBAA2767, read-out: Minimum inhibitory concentration (MIC), B. humptydooensis ATCC BAA-2767.
Test [6] relates to N. gonorrhoeae ATCC 49226. The test is described as follows: Liquid broth MIC in Fastidious broth. Particulars: Neisseria gonorrhoeae, ATCC49226, read-out: Minimum Inhibitory Concentration, ATCC 49226.
Another test has as its system N. gonorrhoeae FA1090. Put plainly: Liquid broth MIC in Fastidious broth. Particulars: Neisseria gonorrhoeae, FA1090, read-out: Minimum Inhibitory Concentration, FA 1090.
A further test has as its system N. gonorrhoeae MS11. Put plainly: Liquid broth MIC in Fastidious broth. The conditions noted are these: Neisseria gonorrhoeae, MS11, read-out: Minimum Inhibitory Concentration, MS11.
A further test deals with N. gonorrhoeae WHO G. The test is described as follows: Liquid broth MIC in Fastidious broth. The conditions noted are these: Neisseria gonorrhoeae, read-out: Minimum Inhibitory Concentration, WHO G.
A further test relates to N. gonorrhoeae WHO L. Put plainly: Liquid broth MIC in Fastidious broth. Particulars: Neisseria gonorrhoeae, read-out: Minimum Inhibitory Concentration, WHO L.
A further test has as its system N. gonorrhoeae WHO Z. Put plainly: Liquid broth MIC in Fastidious broth. The conditions noted are these: Neisseria gonorrhoeae, read-out: Minimum Inhibitory Concentration, WHO Z.
A further test deals with N. gonorrhoeae CDC-0197. Put plainly: Liquid broth MIC in Fastidious broth. Particulars: Neisseria gonorrhoeae, CDC0197, read-out: Minimum Inhibitory Concentration, CDC-0197.

SMILES strings stand for the structures. Converted amounts (≈) assume the structure as drawn. A value given as a limit tells only on which side of the number the result lay.

T1 sequence (P0AD68 1-577): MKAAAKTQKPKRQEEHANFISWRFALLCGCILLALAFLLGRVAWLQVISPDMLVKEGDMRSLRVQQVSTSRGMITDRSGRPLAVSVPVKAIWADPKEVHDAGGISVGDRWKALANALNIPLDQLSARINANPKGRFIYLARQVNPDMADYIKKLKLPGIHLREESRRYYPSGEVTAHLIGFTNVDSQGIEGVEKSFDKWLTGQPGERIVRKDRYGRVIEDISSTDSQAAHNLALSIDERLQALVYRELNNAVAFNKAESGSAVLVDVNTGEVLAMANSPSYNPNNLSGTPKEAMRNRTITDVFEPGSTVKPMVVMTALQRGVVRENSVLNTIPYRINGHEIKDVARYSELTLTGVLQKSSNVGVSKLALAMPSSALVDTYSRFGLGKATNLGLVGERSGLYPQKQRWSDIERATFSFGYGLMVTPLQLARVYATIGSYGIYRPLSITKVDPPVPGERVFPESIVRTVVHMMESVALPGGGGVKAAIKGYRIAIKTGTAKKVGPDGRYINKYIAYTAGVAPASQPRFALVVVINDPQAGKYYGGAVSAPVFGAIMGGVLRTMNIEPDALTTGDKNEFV

Usually EC50 stands for the concentration giving half of the maximal effect. A lower EC50 goes with higher potency in that assay. In [1], `O=C(NCCCS(=O)(=O)N1CCN(C(=O)N[C@H](C(=O)N[C@H]2Cc3ccc(F)c(C(=O)O)c3OB2O)c2cc(F)c(O)c(O)c2Cl)C1=O)c1cccc(O)c1` [Example 270, (R)-3-((S)-2-(2-chloro-5-fluoro-3,4-dihydroxyphenyl)-2-(3-((3-(3-hydroxybenzamido)propyl)sulfonyl)-2-oxoimidazolidine-1-carboxamido)acetamido)-7-fluoro-2-hydroxy-3,4-dihydro-2H-benzo[e][1,2]oxaborinine-8-carboxylic acid] came in with an EC50 of 50 to 250 µM. The IC50 in test [2] is less than 10 µM. For the same molecule, the MIC in the test with P. aeruginosa ATCC 27853 is 32 to 64 µg/mL (≈ 40.2 to 80.4 µM); in the test with A. baumannii ATCC 19606 it was 2 to 4 µg/mL (≈ 2.51 to 5.03 µM); in [3], less than 1 µg/mL; in the test on A. baumannii CDC-0045, 8 to 16 µg/mL (≈ 10.1 to 20.1 µM); in [4], more than 128 µg/mL; in [5] it was more than 128 µg/mL. Further, the MIC in [6] is more than 64 µg/mL; in the test with N. gonorrhoeae FA1090 it was 16 to 32 µg/mL (≈ 20.1 to 40.2 µM); with N. gonorrhoeae MS11 it was more than 64 µg/mL; in the test with N. gonorrhoeae WHO G, more than 64 µg/mL; in the test with N. gonorrhoeae WHO L, more than 64 µg/mL; in the test on N. gonorrhoeae WHO Z, more than 64 µg/mL. Besides, the MIC in the test on N. gonorrhoeae CDC-0197 is more than 64 µg/mL.

In [1], `O=C(NCCCS(=O)(=O)N1CCN(C(=O)N[C@@H](C(=O)N[C@H]2Cc3ccc(F)c(C(=O)O)c3OB2O)c2cc(F)c(O)c(O)c2Cl)C1=O)c1cccc(O)c1` [Example 271, (R)-3-((R)-2-(2-chloro-5-fluoro-3,4-dihydroxyphenyl)-2-(3-((3-(3-hydroxybenzamido)propyl)sulfonyl)-2-oxoimidazolidine-1-carboxamido)acetamido)-7-fluoro-2-hydroxy-3,4-dihydro-2H-benzo[e][1,2]oxaborinine-8-carboxylic acid] came in with an EC50 of less than 10 µM. Also, the IC50 in test [2] was less than 10 µM. The MIC in the test on P. aeruginosa ATCC 27853 is 2 to 4 µg/mL (≈ 2.51 to 5.03 µM); in the test on A. baumannii ATCC 19606, less than 1 µg/mL; in test [3], less than 1 µg/mL; with A. baumannii CDC-0045, less than 1 µg/mL; in test [4] it was 8 to 16 µg/mL (≈ 10.1 to 20.1 µM); in test [5] it was 2 to 4 µg/mL (≈ 2.51 to 5.03 µM). For the same molecule, the MIC is 16 to 32 µg/mL (≈ 20.1 to 40.2 µM) in test [6]; 1 to 2 µg/mL (≈ 1.26 to 2.51 µM) in the test on N. gonorrhoeae FA1090; 16 to 32 µg/mL (≈ 20.1 to 40.2 µM) in the test on N. gonorrhoeae MS11; 16 to 32 µg/mL (≈ 20.1 to 40.2 µM) in the test with N. gonorrhoeae WHO G; more than 64 µg/mL in the test with N. gonorrhoeae WHO L; 4 to 8 µg/mL (≈ 5.03 to 10.1 µM) in the test on N. gonorrhoeae WHO Z. Also, the MIC in the test with N. gonorrhoeae CDC-0197 was in the range of 16 to 32 µg/mL (≈ 20.1 to 40.2 µM).

In the case of `O=C(NCCCS(=O)(=O)N1CCN(C(=O)NC(C(=O)N[C@H]2Cc3ccc(F)c(C(=O)O)c3OB2O)c2cc(F)c(O)c(O)c2Cl)C1=O)c1ccncc1` (stereo partly drawn) [Example 272, (3R)-3-(2-(2-chloro-5-fluoro-3,4-dihydroxyphenyl)-2-(3-((3-(isonicotinamido)propyl)sulfonyl)-2-oxoimidazolidine-1-carboxamido)acetamido)-7-fluoro-2-hydroxy-3,4-dihydro-2H-benzo[e][1,2]oxaborinine-8-carboxylic acid], in test [1], the EC50 is less than 10 µM. Further, in [2], the IC50 was less than 10 µM. Also, the MIC with P. aeruginosa ATCC 27853 is 2 to 4 µg/mL (≈ 2.56 to 5.12 µM); in the test on A. baumannii ATCC 19606 it was less than 1 µg/mL; in test [3] it was less than 1 µg/mL; in the test with A. baumannii CDC-0045 it was less than 1 µg/mL; in test [4], 2 to 4 µg/mL (≈ 2.56 to 5.12 µM); in [5], 2 to 4 µg/mL (≈ 2.56 to 5.12 µM). The MIC in test [6] was 16 to 32 µg/mL (≈ 20.5 to 41 µM); in the test on N. gonorrhoeae FA1090, 4 to 8 µg/mL (≈ 5.12 to 10.2 µM); with N. gonorrhoeae MS11, 16 to 32 µg/mL (≈ 20.5 to 41 µM); with N. gonorrhoeae WHO G it was 16 to 32 µg/mL (≈ 20.5 to 41 µM); with N. gonorrhoeae WHO L, more than 64 µg/mL; in the test on N. gonorrhoeae WHO Z it was 4 to 8 µg/mL (≈ 5.12 to 10.2 µM). Besides, the MIC in the test with N. gonorrhoeae CDC-0197 is 16 to 32 µg/mL (≈ 20.5 to 41 µM).

Take `O=C(NCCCS(=O)(=O)N1CCN(C(=O)NC(C(=O)N[C@H]2Cc3ccc(F)c(C(=O)O)c3OB2O)c2cc(F)c(O)c(O)c2Cl)C1=O)c1cccnc1` (stereo partly drawn) [Example 273, (3R)-3-(2-(2-chloro-5-fluoro-3,4-dihydroxyphenyl)-2-(3-((3-(nicotinamido)propyl)sulfonyl)-2-oxoimidazolidine-1-carboxamido)acetamido)-7-fluoro-2-hydroxy-3,4-dihydro-2H-benzo[e][1,2]oxaborinine-8-carboxylic acid]: in [1], the EC50 was less than 10 µM. The IC50 in test [2] is less than 10 µM. Also, the MIC in the test on P. aeruginosa ATCC 27853 was 2 to 4 µg/mL (≈ 2.56 to 5.12 µM); in the test with A. baumannii ATCC 19606, less than 1 µg/mL; in [3], less than 1 µg/mL; in the test on A. baumannii CDC-0045, less than 1 µg/mL; in test [4], 2 to 4 µg/mL (≈ 2.56 to 5.12 µM); in test [5], 2 to 4 µg/mL (≈ 2.56 to 5.12 µM). Moreover, the MIC was 16 to 32 µg/mL (≈ 20.5 to 41 µM) in test [6]; 4 to 8 µg/mL (≈ 5.12 to 10.2 µM) in the test on N. gonorrhoeae FA1090; 16 to 32 µg/mL (≈ 20.5 to 41 µM) in the test with N. gonorrhoeae MS11; 16 to 32 µg/mL (≈ 20.5 to 41 µM) in the test with N. gonorrhoeae WHO G; more than 64 µg/mL in the test with N. gonorrhoeae WHO L; 4 to 8 µg/mL (≈ 5.12 to 10.2 µM) in the test on N. gonorrhoeae WHO Z. In addition, in the test with N. gonorrhoeae CDC-0197, the MIC fell in the range of 16 to 32 µg/mL (≈ 20.5 to 41 µM).
